Values quoted from earlier work as cited in patent publication US6284845A, “Low temperature cure carboxyl terminated polyesters” (McWhorter Technologies, priority 1999, dated 2001).

Experiments:
rabbit [1] = system: rabbit
rabbit [2] = system: rabbit; remark: listed apart in the source

Compound | Primary eye irritation (rabbit [1]) | Primary skin irritation (guinea pig) | Acute oral toxicity LD50 (rat) [mg/kg] | Primary skin irritation (rabbit [2])
O=C(CCCCC(=O)N(CCO)CCO)N(CCO)CCO [Primid XL-552, N,N,N',N'-Tetrakis (2-hydroxyethyl) adipamide] | not irritating | not irritating | > 5000 | 
CC(O)CN(CC(C)O)C(=O)CCCCC(=O)N(CC(C)O)CC(C)O (stereo not drawn) [Primid QM-1260, N,N,N',N'-Tetrakis (2-hydroxypropyl) adipamide] | not irritating |  | > 2000 | not irritating
